# Key:
# [1] = target: SIK2 (Homo sapiens (Human), UniProt Q9H0K1); assay: KINOMEscan scanMAX; format: binding; conditions: 2000 nM; read-out: Percent Control
# [2] = target: FGFR3(G697C) (Homo sapiens (Human), UniProt P22607, G697C); assay: KINOMEscan scanMAX; format: binding; conditions: 2000 nM; read-out: Percent Control
# [3] = target: PIK3C2B (Homo sapiens (Human), UniProt O00750); assay: KINOMEscan scanMAX; format: binding; conditions: 2000 nM; read-out: Percent Control
# [4] = target: ERK4 (MAPK4) (Homo sapiens (Human), UniProt P31152); assay: KINOMEscan scanMAX; format: binding; conditions: 2000 nM; read-out: Percent Control
# [5] = target: PCTK3 (CDK18) (Homo sapiens (Human), UniProt Q07002); assay: KINOMEscan scanMAX; format: binding; conditions: 2000 nM; read-out: Percent Control
# [6] = target: TAOK2 (Homo sapiens (Human), UniProt Q9UL54); assay: KINOMEscan scanMAX; format: binding; conditions: 2000 nM; read-out: Percent Control
# [7] = target: FLT3(D835Y) (Homo sapiens (Human), UniProt P36888, D835Y); assay: KINOMEscan scanMAX; format: binding; conditions: 2000 nM; read-out: Percent Control
# [8] = target: EGFR(L858R, T790M) (Homo sapiens (Human), UniProt P00533, L858R/T790M); assay: KINOMEscan scanMAX; format: binding; conditions: 2000 nM; read-out: Percent Control
# [9] = target: PKNB(M.tuberculosis) (pknB) (Mycobacterium tuberculosis (strain ATCC 25618 / H37Rv), UniProt P9WI81); assay: KINOMEscan scanMAX; format: binding; conditions: 2000 nM; read-out: Percent Control
# [10] = target: PRKD2 (Homo sapiens (Human), UniProt Q9BZL6); assay: KINOMEscan scanMAX; format: binding; conditions: 2000 nM; read-out: Percent Control
# [11] = target: TNNI3K (Homo sapiens (Human), UniProt Q59H18); assay: KINOMEscan scanMAX; format: binding; conditions: 2000 nM; read-out: Percent Control
# [12] = target: NEK3 (Homo sapiens (Human), UniProt P51956); assay: KINOMEscan scanMAX; format: binding; conditions: 2000 nM; read-out: Percent Control
# [13] = target: PDGFRB (Homo sapiens (Human), UniProt P09619); assay: KINOMEscan scanMAX; format: binding; conditions: 2000 nM; read-out: Percent Control
# [14] = target: BRSK1 (Homo sapiens (Human), UniProt Q8TDC3); assay: KINOMEscan scanMAX; format: binding; conditions: 2000 nM; read-out: Percent Control
# [15] = target: WEE1 (Homo sapiens (Human), UniProt P30291); assay: KINOMEscan scanMAX; format: binding; conditions: 2000 nM; read-out: Percent Control
# [16] = target: PLK1 (Homo sapiens (Human), UniProt P53350); assay: KINOMEscan scanMAX; format: binding; conditions: 2000 nM; read-out: Percent Control
# [17] = target: PIP5K1C (Homo sapiens (Human), UniProt O60331); assay: KINOMEscan scanMAX; format: binding; conditions: 2000 nM; read-out: Percent Control
# [18] = target: NEK7 (Homo sapiens (Human), UniProt Q8TDX7); assay: KINOMEscan scanMAX; format: binding; conditions: 2000 nM; read-out: Percent Control
# [19] = target: PRKCI (Homo sapiens (Human), UniProt P41743); assay: KINOMEscan scanMAX; format: binding; conditions: 2000 nM; read-out: Percent Control
# [20] = target: PAK4 (Homo sapiens (Human), UniProt O96013); assay: KINOMEscan scanMAX; format: binding; conditions: 2000 nM; read-out: Percent Control
# [21] = target: MERTK (Homo sapiens (Human), UniProt Q12866); assay: KINOMEscan scanMAX; format: binding; conditions: 2000 nM; read-out: Percent Control
# [22] = target: DAPK2 (Homo sapiens (Human), UniProt Q9UIK4); assay: KINOMEscan scanMAX; format: binding; conditions: 2000 nM; read-out: Percent Control
# [23] = target: ACVR2A (Homo sapiens (Human), UniProt P27037); assay: KINOMEscan scanMAX; format: binding; conditions: 2000 nM; read-out: Percent Control
# [24] = target: PAK6 (Homo sapiens (Human), UniProt Q9NQU5); assay: KINOMEscan scanMAX; format: binding; conditions: 2000 nM; read-out: Percent Control
# [25] = target: CLK2 (Homo sapiens (Human), UniProt P49760); assay: KINOMEscan scanMAX; format: binding; conditions: 2000 nM; read-out: Percent Control
# [26] = target: MRCKA (CDC42BPA) (Homo sapiens (Human), UniProt Q5VT25); assay: KINOMEscan scanMAX; format: binding; conditions: 2000 nM; read-out: Percent Control
# [27] = target: FGFR3 (Homo sapiens (Human), UniProt P22607); assay: KINOMEscan scanMAX; format: binding; conditions: 2000 nM; read-out: Percent Control
# [28] = target: EGFR(L747-T751del, Sins) (Homo sapiens (Human), UniProt P00533, DEL747-751/INS746S); assay: KINOMEscan scanMAX; format: binding; conditions: 2000 nM; read-out: Percent Control
# [29] = target: PIK3CA(E545K) (Homo sapiens (Human), UniProt P42336, E545K); assay: KINOMEscan scanMAX; format: binding; conditions: 2000 nM; read-out: Percent Control
# [30] = target: CDK8 in complex with Cyclin C (Homo sapiens (Human), UniProt P49336); assay: LanthaScreen Eu Kinase Binding Assay
# Source text: The binding of the tracer to the kinase is detected using a europium-labeled anti-tag antibody, which binds to the kinase of interest. […] The binding of an inhibitor to the kinase competes for binding with the tracer, resulting in a loss of FRET.
# [31] = target: ABL1(F317L)-phosphorylated (Homo sapiens (Human), UniProt P00519, F317L); assay: KINOMEscan scanMAX; format: binding; conditions: 2000 nM; read-out: Percent Control
# [32] = target: HPK1 (MAP4K1) (Homo sapiens (Human), UniProt Q92918); assay: KINOMEscan scanMAX; format: binding; conditions: 2000 nM; read-out: Percent Control
# [33] = target: RAF1 (Homo sapiens (Human), UniProt P04049); assay: KINOMEscan scanMAX; format: binding; conditions: 2000 nM; read-out: Percent Control
# [34] = target: PIK3CB (Homo sapiens (Human), UniProt P42338); assay: KINOMEscan scanMAX; format: binding; conditions: 2000 nM; read-out: Percent Control
# [35] = target: ROCK2 (Homo sapiens (Human), UniProt O75116); assay: KINOMEscan scanMAX; format: binding; conditions: 2000 nM; read-out: Percent Control
# [36] = target: CSNK1A1L (Homo sapiens (Human), UniProt Q8N752); assay: KINOMEscan scanMAX; format: binding; conditions: 2000 nM; read-out: Percent Control
# [37] = target: AKT3 (Homo sapiens (Human), UniProt Q9Y243); assay: KINOMEscan scanMAX; format: binding; conditions: 2000 nM; read-out: Percent Control
# [38] = target: ABL1(H396P)-nonphosphorylated (Homo sapiens (Human), UniProt P00519, H396P); assay: KINOMEscan scanMAX; format: binding; conditions: 2000 nM; read-out: Percent Control
# PDGFRB, sequence (P09619 33-1106): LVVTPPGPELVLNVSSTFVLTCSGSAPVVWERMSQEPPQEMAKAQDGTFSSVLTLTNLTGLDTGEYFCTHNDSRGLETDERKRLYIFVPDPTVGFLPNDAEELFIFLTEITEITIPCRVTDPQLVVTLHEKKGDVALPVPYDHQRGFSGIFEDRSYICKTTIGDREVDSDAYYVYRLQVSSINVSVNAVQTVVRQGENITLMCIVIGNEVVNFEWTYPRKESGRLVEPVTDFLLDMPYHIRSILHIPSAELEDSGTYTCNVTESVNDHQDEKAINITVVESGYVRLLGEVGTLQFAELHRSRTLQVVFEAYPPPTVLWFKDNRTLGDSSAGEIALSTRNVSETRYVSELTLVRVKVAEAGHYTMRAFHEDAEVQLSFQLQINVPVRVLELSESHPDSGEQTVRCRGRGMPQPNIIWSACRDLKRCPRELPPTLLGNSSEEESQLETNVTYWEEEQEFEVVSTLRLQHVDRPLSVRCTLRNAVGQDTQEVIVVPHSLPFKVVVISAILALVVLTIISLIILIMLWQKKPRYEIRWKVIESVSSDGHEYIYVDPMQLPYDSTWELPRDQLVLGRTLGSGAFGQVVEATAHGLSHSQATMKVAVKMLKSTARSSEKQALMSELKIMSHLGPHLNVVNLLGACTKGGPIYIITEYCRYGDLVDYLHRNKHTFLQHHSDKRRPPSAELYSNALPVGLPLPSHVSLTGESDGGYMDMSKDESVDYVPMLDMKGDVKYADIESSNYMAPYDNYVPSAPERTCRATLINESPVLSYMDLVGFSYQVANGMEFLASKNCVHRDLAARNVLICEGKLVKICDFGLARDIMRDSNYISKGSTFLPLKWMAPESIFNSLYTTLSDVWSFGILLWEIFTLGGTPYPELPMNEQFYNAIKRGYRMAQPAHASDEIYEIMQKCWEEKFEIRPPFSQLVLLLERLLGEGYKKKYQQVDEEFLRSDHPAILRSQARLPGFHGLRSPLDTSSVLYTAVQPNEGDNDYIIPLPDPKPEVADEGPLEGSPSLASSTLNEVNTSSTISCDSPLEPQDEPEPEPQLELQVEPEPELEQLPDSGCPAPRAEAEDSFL
# PAK6, sequence (Q9NQU5 whole entry): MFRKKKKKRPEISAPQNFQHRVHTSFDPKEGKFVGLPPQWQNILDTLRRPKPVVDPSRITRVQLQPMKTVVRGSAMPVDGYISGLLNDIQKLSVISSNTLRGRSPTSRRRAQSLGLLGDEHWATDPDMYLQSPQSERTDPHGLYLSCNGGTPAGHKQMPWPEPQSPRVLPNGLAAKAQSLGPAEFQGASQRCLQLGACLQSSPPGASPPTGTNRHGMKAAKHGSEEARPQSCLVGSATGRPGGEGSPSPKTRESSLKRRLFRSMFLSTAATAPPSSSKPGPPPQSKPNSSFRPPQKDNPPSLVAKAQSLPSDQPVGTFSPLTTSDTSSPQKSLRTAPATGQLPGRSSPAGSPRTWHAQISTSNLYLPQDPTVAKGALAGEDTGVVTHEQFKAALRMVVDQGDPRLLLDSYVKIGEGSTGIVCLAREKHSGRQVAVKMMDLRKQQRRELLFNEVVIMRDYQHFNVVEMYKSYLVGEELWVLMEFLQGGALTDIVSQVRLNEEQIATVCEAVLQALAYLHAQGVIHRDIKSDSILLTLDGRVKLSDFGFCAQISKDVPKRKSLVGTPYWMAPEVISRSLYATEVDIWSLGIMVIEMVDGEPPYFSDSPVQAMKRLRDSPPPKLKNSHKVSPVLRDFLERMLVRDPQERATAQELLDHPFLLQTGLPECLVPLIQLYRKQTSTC
# WEE1, sequence (P30291 whole entry): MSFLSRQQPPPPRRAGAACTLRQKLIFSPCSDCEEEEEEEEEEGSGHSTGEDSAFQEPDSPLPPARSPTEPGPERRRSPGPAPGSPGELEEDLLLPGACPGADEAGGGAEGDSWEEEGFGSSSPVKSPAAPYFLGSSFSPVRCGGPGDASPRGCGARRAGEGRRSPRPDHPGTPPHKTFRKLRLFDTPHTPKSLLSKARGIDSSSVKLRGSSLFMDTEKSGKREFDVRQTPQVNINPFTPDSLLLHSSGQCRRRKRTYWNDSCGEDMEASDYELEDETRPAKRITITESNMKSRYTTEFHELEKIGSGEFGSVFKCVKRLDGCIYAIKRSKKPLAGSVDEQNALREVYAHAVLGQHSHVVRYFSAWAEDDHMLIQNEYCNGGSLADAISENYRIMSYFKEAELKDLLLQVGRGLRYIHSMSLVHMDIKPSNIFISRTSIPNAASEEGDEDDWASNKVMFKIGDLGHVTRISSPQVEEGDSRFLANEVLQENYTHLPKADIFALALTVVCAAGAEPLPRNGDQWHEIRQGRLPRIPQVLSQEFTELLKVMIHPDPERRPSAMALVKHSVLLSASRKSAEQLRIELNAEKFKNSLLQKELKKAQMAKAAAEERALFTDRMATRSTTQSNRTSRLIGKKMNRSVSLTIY
# MERTK, sequence (Q12866 21-999): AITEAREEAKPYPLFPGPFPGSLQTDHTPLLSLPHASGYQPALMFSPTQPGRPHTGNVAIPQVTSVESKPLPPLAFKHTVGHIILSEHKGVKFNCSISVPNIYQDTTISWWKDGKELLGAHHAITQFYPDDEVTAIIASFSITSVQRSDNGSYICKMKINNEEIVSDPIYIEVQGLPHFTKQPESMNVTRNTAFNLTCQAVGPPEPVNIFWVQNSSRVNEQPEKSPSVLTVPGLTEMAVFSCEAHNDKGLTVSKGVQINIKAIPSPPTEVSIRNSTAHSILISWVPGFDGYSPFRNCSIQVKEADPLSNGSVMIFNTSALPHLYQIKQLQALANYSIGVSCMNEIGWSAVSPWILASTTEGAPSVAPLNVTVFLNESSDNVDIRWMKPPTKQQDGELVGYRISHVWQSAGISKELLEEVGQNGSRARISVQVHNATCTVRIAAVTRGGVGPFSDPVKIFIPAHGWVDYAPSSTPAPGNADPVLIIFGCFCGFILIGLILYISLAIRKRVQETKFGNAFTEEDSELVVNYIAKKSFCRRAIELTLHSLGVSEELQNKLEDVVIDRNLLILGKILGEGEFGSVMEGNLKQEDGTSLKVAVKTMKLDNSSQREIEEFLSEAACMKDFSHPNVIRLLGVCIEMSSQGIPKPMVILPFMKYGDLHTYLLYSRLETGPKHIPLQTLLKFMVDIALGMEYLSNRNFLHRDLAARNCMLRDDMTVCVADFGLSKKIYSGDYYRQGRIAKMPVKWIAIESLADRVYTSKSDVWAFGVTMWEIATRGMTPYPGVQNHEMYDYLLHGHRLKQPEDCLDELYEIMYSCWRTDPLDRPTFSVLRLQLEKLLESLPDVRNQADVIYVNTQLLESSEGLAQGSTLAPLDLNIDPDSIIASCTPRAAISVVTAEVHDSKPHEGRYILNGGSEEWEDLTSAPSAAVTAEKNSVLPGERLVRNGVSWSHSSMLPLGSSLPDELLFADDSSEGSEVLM
# PRKD2, sequence (Q9BZL6 whole entry): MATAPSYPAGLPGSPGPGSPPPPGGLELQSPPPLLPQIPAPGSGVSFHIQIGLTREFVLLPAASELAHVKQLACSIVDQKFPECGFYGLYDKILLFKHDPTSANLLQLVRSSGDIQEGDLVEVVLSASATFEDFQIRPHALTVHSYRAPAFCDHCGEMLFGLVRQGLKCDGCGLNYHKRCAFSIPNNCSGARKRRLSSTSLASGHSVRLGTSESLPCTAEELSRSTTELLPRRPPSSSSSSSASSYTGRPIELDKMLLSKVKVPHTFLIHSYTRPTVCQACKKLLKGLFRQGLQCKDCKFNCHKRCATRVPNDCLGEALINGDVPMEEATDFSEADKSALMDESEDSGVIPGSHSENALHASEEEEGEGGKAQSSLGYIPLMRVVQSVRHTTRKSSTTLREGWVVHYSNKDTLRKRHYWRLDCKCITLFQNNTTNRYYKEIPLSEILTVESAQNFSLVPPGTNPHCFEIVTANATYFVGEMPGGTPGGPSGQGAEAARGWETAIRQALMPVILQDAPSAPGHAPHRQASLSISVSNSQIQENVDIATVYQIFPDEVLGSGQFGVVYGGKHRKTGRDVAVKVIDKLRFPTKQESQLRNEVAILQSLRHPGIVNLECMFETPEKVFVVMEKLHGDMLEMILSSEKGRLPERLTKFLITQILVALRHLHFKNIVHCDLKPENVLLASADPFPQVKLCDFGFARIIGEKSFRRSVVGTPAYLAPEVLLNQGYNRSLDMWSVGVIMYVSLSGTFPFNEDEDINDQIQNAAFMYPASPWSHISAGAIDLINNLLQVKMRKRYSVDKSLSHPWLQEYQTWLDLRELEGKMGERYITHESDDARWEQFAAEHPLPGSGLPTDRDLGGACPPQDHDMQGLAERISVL
# ACVR2A, sequence (P27037 20-513): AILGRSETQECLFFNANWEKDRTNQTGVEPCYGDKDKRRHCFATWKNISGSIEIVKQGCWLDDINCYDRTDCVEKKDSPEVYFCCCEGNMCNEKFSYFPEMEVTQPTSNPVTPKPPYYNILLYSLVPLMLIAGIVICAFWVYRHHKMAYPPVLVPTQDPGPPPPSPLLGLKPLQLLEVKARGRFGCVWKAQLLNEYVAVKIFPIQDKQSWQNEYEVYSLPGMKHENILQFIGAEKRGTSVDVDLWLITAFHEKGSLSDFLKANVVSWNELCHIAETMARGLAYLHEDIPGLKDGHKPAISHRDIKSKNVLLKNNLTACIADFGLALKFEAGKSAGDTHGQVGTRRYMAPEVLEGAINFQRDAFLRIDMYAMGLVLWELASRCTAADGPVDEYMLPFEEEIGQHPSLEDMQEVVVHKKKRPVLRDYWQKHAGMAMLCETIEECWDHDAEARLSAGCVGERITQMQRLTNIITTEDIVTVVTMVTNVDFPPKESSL
# NEK7, sequence (Q8TDX7 whole entry): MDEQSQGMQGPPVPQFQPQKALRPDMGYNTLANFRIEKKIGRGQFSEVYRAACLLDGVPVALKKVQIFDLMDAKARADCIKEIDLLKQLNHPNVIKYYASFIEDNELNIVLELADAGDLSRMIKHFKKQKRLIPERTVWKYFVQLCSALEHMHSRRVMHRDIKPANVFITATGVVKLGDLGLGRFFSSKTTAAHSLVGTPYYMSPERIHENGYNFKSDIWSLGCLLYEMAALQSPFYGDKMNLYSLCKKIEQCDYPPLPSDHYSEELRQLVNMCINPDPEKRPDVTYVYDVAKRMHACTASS
smiles,measurement,setting,value
"CN1CCN(C(=O)c2ccc3cc(CCNc4ccnc5ccc(C#N)cc45)ccc3c2)CC1 [compound 6148, 4-((2-(6-(4-methylpiperazine-1-carbonyl)naphthalen-2-yl)ethyl)amino)quinoline-6-carbonitrile]",remaining binding at 2 µM,[1],100%
same,remaining binding at 2 µM,[2],93%
same,remaining binding at 2 µM,[3],80%
same,remaining binding at 2 µM,[4],87%
same,remaining binding at 2 µM,[5],97%
same,remaining binding at 2 µM,[6],77%
same,remaining binding at 2 µM,[7],73%
same,remaining binding at 2 µM,[8],82%
same,remaining binding at 2 µM,[9],93%
same,remaining binding at 2 µM,[10],88%
same,remaining binding at 2 µM,[11],100%
same,remaining binding at 2 µM,[12],60%
same,remaining binding at 2 µM,[13],94%
same,remaining binding at 2 µM,[14],100%
same,remaining binding at 2 µM,[15],88%
same,remaining binding at 2 µM,[16],63%
same,remaining binding at 2 µM,[17],87%
same,remaining binding at 2 µM,[18],94%
same,remaining binding at 2 µM,[19],89%
same,remaining binding at 2 µM,[20],97%
same,remaining binding at 2 µM,[21],89%
same,remaining binding at 2 µM,[22],100%
same,remaining binding at 2 µM,[23],89%
same,remaining binding at 2 µM,[24],90%
same,remaining binding at 2 µM,[25],93%
same,remaining binding at 2 µM,[26],98%
same,remaining binding at 2 µM,[27],100%
same,remaining binding at 2 µM,[28],74%
same,remaining binding at 2 µM,[29],55%
same,IC50,[30],3.8 nM
same,remaining binding at 2 µM,[31],74%
same,remaining binding at 2 µM,[32],94%
same,remaining binding at 2 µM,[33],98%
same,remaining binding at 2 µM,[34],64%
same,remaining binding at 2 µM,[35],71%
same,remaining binding at 2 µM,[36],88%
same,remaining binding at 2 µM,[37],100%
same,remaining binding at 2 µM,[38],73%

# Reference: patent US12281080B2, “Quinoline-based compounds and methods of inhibiting CDK8/19” (University of South Carolina, priority 2018, dated 2025)
